In patent US10219990B2, “Solubilizing agents for UV filters in cosmetic formulations” (BASF SE, priority 2014, dated 2019):

Experiment: Solubility tests of UV filters in solubilizing agents
Format: physicochemical
Conditions: stirred seven days at 25° C., UV/Vis-spectrometry; for Solubility [%] of UV filter compound of formula (BPH-02) in solubilizing agent: UV filter (BPH-02); for Solubility [%] of UV filter compound of formula (HTP-02) in solubilizing agent: UV filter (HTP-02); for Solubility [%] of UV filter compound of formula (TAT-02) in solubilizing agent: UV filter (TAT-02)
Procedure: 2 ml of the solubilizing agent are filled into a 20 ml vial with cap. Afterwards 0.02 g (1%) of the respective substance (UV Filter) are weighed and added to the solvent. The vial is placed into a thermostat-controlled water bath, wherein the suspension/solution is stirred during seven days at 25° C.
If the substance added to the solubilizing agent is fully soluble, additional substance is added until precipitation can be observed.
After seven days, the sample is centrifuged for 30 minutes at 13000 rpm at 25° C. The supernatant is transferred into a small beaker. In case the sample is still turbid, it is filtered through a 0.2 μm non-steril Membrex 25 PET filter. Clear solutions must not be filtered. When a clear solution is obtained, the concentration of the substance is determined with UV/Vis-spectrometry. For this purpose, the sample may be diluted with a suitable solvent or, in case of lower concentrations, may be measured as it s.
The concentration of the UV-spectroscopic results is measured with the extinction coefficient, which is determined independently with a solvent of similar polarity like that one used for dilution of the saturated solutions.
The solubility can be calculated using the Lambert-Beer-Law equation.

In the case of C 23-Guerbet-monolactate, the “Solubility [%] of UV filter compound of formula (BPH-02) in solubilizing agent” value (“Solubility [%] … (BPH-02) in solubilizing agent” below) was 11.2%, the “Solubility [%] of UV filter compound of formula (HTP-02) in solubilizing agent” value (“Solubility [%] … (HTP-02) in solubilizing agent” for short) was 2.9% and the “Solubility [%] of UV filter compound of formula (TAT-02) in solubilizing agent” value (from here on “Solubility [%] … (TAT-02) in solubilizing agent”) was 11.9%.
For `CCCCCCCCCC(=O)N(C)C` [Spectrasolv DMDA, reference compound], the “Solubility [%] … (BPH-02) in solubilizing agent” value was over 40%, the “Solubility [%] … (HTP-02) in solubilizing agent” value was 40% and the “Solubility [%] … (TAT-02) in solubilizing agent” value was 23%.
In the case of Iso-C18-monolactate, the “Solubility [%] … (BPH-02) in solubilizing agent” value was 12.2%, the “Solubility [%] … (HTP-02) in solubilizing agent” value was 3.3% and the “Solubility [%] … (TAT-02) in solubilizing agent” value was 13.4%.
